Parameters: species or system BALB/cAnNHsd mice
Details: mouse, in vivo, ip

For “insulin: recombinant insulin (Humalog, Eli-Lilly), positive control in glucose tolerance test”, the “blood glucose levels compared to the PBS and s-cal14.2b groups 30 min after administration” value was “significantly lower” and the “change of blood glucose levels compared to the PBS control group after five minutes” value was “did not significantly change”.

— PMC8391312 (Biomedicines, 2021)
